Experimental data reported in US20170305992A1, “NOVEL PEPTIDES AND COMBINATION OF PEPTIDES FOR USE IN IMMUNOTHERAPY AGAINST VARIOUS TUMORS” (IMMATICS BIOTECHNOLOGIES GMBH, priority 2015, published 2017).

System: CD8+ T cells
Assay: In vitro T-cell priming assay with aAPCs loaded with peptide/MHC and anti-CD28, pMHC multimer readout (in vitro immunogenicity)
Assay type: cell-based, human
Settings: for Wells positive [%]: HLA-A*02 restricted peptides, Table 6B; for in vitro immunogenicity: donors: percentage of positive donors; for in vitro immunogenicity: donors / in vitro immunogenicity: wells: HLA class I peptides, Table 6A; for in vitro immunogenicity: wells: percentage of positive wells
Description: In order to obtain information regarding the immunogenicity of the TUMAPs of the present invention, the inventors performed investigations using an in vitro T-cell priming assay based on repeated stimulations of CD8+ T cells with artificial antigen presenting cells (aAPCs) loaded with peptide/MHC complexes and anti-CD28 antibody.
In order to perform in vitro stimulations by artificial antigen presenting cells loaded with peptide-MHC complex (pMHC) and anti-CD28 antibody, the inventors first isolated CD8+ T cells from fresh HLA-A*02 leukapheresis products via positive selection using CD8 microbeads (Miltenyi Biotec, Bergisch-Gladbach, Germany) of healthy donors obtained from the University clinics Mannheim, Germany, after informed consent. PBMCs and isolated CD8+ lymphocytes were incubated in T-cell medium (TCM) until use consisting of RPMI-Glutamax (Invitrogen, Karlsruhe, Germany) supplemented with 10% heat inactivated human AB serum (PAN-Biotech, Aidenbach, Germany), 100 U/ml Penicillin/100 μg/ml Streptomycin (Cambrex, Cologne, Germany), 1 mM sodium pyruvate (CC Pro, Oberdorla, Germany), 20 μg/ml Gentamycin (Cambrex). 2.5 ng/ml IL-7 (PromoCell, Heidelberg, Germany) and 10 U/ml IL-2 (Novartis Pharma, Nürnberg, Germany) were also added to the TCM at this step. Generation of pMHC/anti-CD28 coated beads, T-cell stimulations and readout was performed in a highly defined in vitro system using four different pMHC molecules per stimulation condition and 8 different pMHC molecules per readout condition.
The purified co-stimulatory mouse IgG2a anti human CD28 Ab 9.3 (Jung et al., 1987) was chemically biotinylated using Sulfo-N-hydroxysuccinimidobiotin as recommended by the manufacturer (Perbio, Bonn, Germany). Beads used were 5.6 μm diameter streptavidin coated polystyrene particles (Bangs Laboratories, Ill., USA).
pMHC used for positive and negative control stimulations were A*0201/MLA-001 (peptide […] (SEQ ID NO. 289) from modified Melan-A/MART-1) and A*0201/DDX5-001 ([…] from DDX5, SEQ ID NO. 290), respectively.
800.000 beads/200 μl were coated in 96-well plates in the presence of 4×12.5 ng different biotin-pMHC, washed and 600 ng biotin anti-CD28 were added subsequently in a volume of 200 μl. Stimulations were initiated in 96-well plates by co-incubating […] CD8+ T cells with 2×10^5 washed coated beads in 200 μl TCM supplemented with 5 ng/ml IL-12 (PromoCell) for 3 days at 37° C. Half of the medium was then exchanged by fresh TCM supplemented with 80 U/ml IL-2 and incubating was continued for 4 days at 37° C. This stimulation cycle was performed for a total of three times. For the pMHC multimer readout using 8 different pMHC molecules per condition, a two-dimensional combinatorial coding approach was used as previously described (Andersen et al., 2012) with minor modifications encompassing coupling to 5 different fluorochromes. Finally, multimeric analyses were performed by staining the cells with Live/dead near IR dye (Invitrogen, Karlsruhe, Germany), CD8-FITC antibody clone SK1 (BD, Heidelberg, Germany) and fluorescent pMHC multimers. For analysis, a BD LSRII SORP cytometer equipped with appropriate lasers and filters was used. Peptide specific cells were calculated as percentage of total CD8+ cells. Evaluation of multimeric analysis was done using the FlowJo software (Tree Star, Oreg., USA). In vitro priming of specific multimer+CD8+ lymphocytes was detected by comparing to negative control stimulations.
Exemplary flow cytometry results after TUMAP-specific multimer staining for peptides of the invention are shown in FIG. 3 together with corresponding negative controls.

Row | Substance | Wells positive [%] | further results
1 | 4 (VLFGELPAL; listed as Homo sapiens) [compound 4] | + (<20% = +) | –
2 | 7 (ALLQALMEL; listed as Homo sapiens) [compound 7] | ++ (20% - 49% = ++) | –
3 | 9 (SLITGQDLLSV; listed as Homo sapiens) [compound 9] | + (<20% = +) | –
4 | 11 (LLDPKTIFL; listed as Homo sapiens) [compound 11] | ++ (20% - 49% = ++) | –
5 | 14 (YTFSGDVQL; listed as Homo sapiens) [compound 14] | + (<20% = +) | –
6 | 17 (GLLPSAESIKL; listed as Homo sapiens) [compound 17] | + (<20% = +) | –
7 | 27 (GLLGKVTSV; listed as Homo sapiens) [compound 27] | + (<20% = +) | –
8 | 29 (KMISAIPTL; listed as Homo sapiens) [compound 29] | + (<20% = +) | –
9 | 35 (VIIKGLEEI; listed as Homo sapiens) [compound 35] | + (<20% = +) | –
10 | 48 (KISDFGLATV; listed as Homo sapiens) [compound 48] | ++ (20% - 49% = ++) | –
11 | 50 (ILLSVLHQL; listed as Homo sapiens) [compound 50] | + (<20% = +) | –
12 | 66 (AMFPDTIPRV; listed as Homo sapiens) [compound 66] | + (<20% = +) | –
13 | 77 (ALYGNVQQV; listed as Homo sapiens) [compound 77] | + (<20% = +) | –
14 | 89 (SLAETIFIV; listed as Homo sapiens) [compound 89] | + (<20% = +) | –
15 | 92 (RLFEEVLGV; listed as Homo sapiens) [compound 92] | ++ (20% - 49% = ++) | –
16 | 97 (KLFEKSTGL; listed as Homo sapiens) [compound 97] | + (<20% = +) | –
17 | 101 (SLLEVNEASSV; listed as Homo sapiens) [compound 101] | + (<20% = +) | –
18 | 102 (GLYPVTLVGV; listed as Homo sapiens) [compound 102] | + (<20% = +) | –
19 | 117 (TLLEGISRA; listed as Homo sapiens) [compound 117] | ++ (20% - 49% = ++) | –
20 | 121 (ALYVQAPTV; listed as Homo sapiens) [compound 121] | + (<20% = +) | –
21 | 157 (ILQDGQFLV; listed as Homo sapiens) [compound 157] | + (<20% = +) | –

Row | Substance | Wells positive [%] | further results
22 | 166 (LLGDSSFFL; listed as Homo sapiens) [compound 166] | ++ (20% - 49% = ++) | –
23 | 233 (SLFESLEYL; listed as Homo sapiens) [compound 233] | + (<20% = +) | –
24 | 234 (VLLNEILEQV; listed as Homo sapiens) [compound 234] | ++ (20% - 49% = ++) | –
25 | 236 (KMSELQTYV; listed as Homo sapiens) [compound 236] | + (<20% = +) | –
26 | 242 (KLQEEIPVL; listed as Homo sapiens) [compound 242] | + (<20% = +) | –
27 | 246 (ALAGIVTNV; listed as Homo sapiens) [compound 246] | + (<20% = +) | –
28 | 248 (VLMQDSRLYL; listed as Homo sapiens) [compound 248] | ++ (20% - 49% = ++) | –
29 | 251 (LLWGNLPEI; listed as Homo sapiens) [compound 251] | ++ (20% - 49% = ++) | –
30 | 253 (KLLAVIHEL; listed as Homo sapiens) [compound 253] | ++ (20% - 49% = ++) | –
31 | 254 (ALGDKFLLRV; listed as Homo sapiens) [compound 254] | + (<20% = +) | –
32 | 255 (FLMKNSDLYGA; listed as Homo sapiens) [compound 255] | + (<20% = +) | –
33 | 257 (KLIDHQGLYL; listed as Homo sapiens) [compound 257] | + (<20% = +) | –
34 | 260 (ALNESLVEC; listed as Homo sapiens) [compound 260] | + (<20% = +) | –
35 | 261 (GLAALAVHL; listed as Homo sapiens) [compound 261] | ++ (20% - 49% = ++) | –
36 | 263 (SIIEYLPTL; listed as Homo sapiens) [compound 263] | + (<20% = +) | –
37 | 264 (TLHDQVHLL; listed as Homo sapiens) [compound 264] | + (<20% = +) | –
38 | 267 (YLLDMPLWYL; listed as Homo sapiens) [compound 267] | + (<20% = +) | –
39 | 275 (AVPPPPSSV; listed as Homo sapiens) [compound 275] | ++ (20% - 49% = ++) | –
40 | 287 (KIQEILTQV; listed as Homo sapiens) [compound 287] | – | in vitro immunogenicity: donors: +++ (50% - 69% = +++); in vitro immunogenicity: wells: + (<20% = +)
41 | 288 (SLYKGLLSV; listed as Homo sapiens) [compound 288] | – | in vitro immunogenicity: donors: ++++ (> = 70% = ++++); in vitro immunogenicity: wells: ++ (21% - 49% = ++)
